# Measured values published in patent US6784208B2, “Method for preventing and treating visceral pain and gastrointestinal disorders” (Warner-Lambert Company, priority 2001, dated 2004).
# Read-outs that look alike come from different tables or passages of the source.
# Key:
# [1] = tested on: TNBS-induced chronic visceral allodynia; test: TNBS-induced chronic visceral allodynia in rats (colonic distension); format: in vivo, rat; details: for Inhibition at 1 h (%) of the TNBS-induced decrease in the pain threshold: 1 h before colonic distension, rats
# Method: In this experimental model of colonic distension in awake rats, previous injection of TNBS into the proximal colon had lowered the visceral pain threshold.
# Male Sprague-Dawley rats weighing 340-400 g are used. The animals are housed 3 per cage in a regulated environment (20±1° C., 50±5% humidity, with light 8:00 am to 8:00 pm). At day 0, under anesthesia (ketamine 80 mg/kg ip.; acepromazine 12 mg/kg ip.), the injection of TNBS (50 mg/kg in ethanol 30%), or saline (1.5 ml/kg) for control rats, is performed into the proximal colon wall (1 cm from the cecum). After the surgery, animals are individually housed in polypropylene cages and kept in a regulated environment (20±1° C., 50±5% humidity, with light 8:00 a.m. to 8:00 p.m.) during 7 days. At day 7 after TNBS administration, a balloon (5-6 cm length) is inserted by anus, and kept in position (tip of balloon 5 cm from the anus) by taping the catheter to the base of the tail. Oral administration of gabapentin or the compound of formula Ia is performed 1 h before the colonic distension cycle: the balloon is progressively inflated by steps of 5 mm Hg (0.667 kPa), from 0 to 75 mm Hg, each step of inflation lasting 30 s. Each cycle of colonic distension is controlled by a standard barostat. The threshold (mm Hg) corresponds to the pressure which produced the first abdominal contraction, and the cycle of distension is then discontinued. The colonic threshold is determined after performance of four cycles of distension on the same animal.
# Data is analyzed by comparing test compound-treated groups with a TNBS only-treated group and the control group. Mean and SEM are calculated for each group. The antiallodynic activity of each oral dose of the test compound is calculated as follows: [formula]
# where A=mean threshold of the test compound-treated group,
# T=mean threshold of the TNBS only-treated group,
# C=mean threshold of the control group.
# The results measured in the test compound-treated groups are expressed in % inhibition of the TNBS-induced decrease in the pain threshold. Statistical significance between each group was determined by using a one-way ANOVA followed by Student's unpaired t-test; differences were considered statistically significant at p<0.05.
# [2] = tested on: LPS-induced rectal hypersensitivity; test: LPS-induced rectal hypersensitivity in rats (rectal distension, abdominal contractions); format: in vivo, rat; details: for inhibition of the number of abdominal contractions induced by rectal distension: distension at 0.4 ml, LPS treated rats
# Method: Animals are surgically prepared for electromyography: rats are anaesthetized by intraperitoneal injection of acepromazine (0.6 mg/kg) and ketamine (120 mg/kg). […] Electrodes are exteriorized on the back of the neck and protected by a glass tube attached to the skin. Animals are individually housed in polypropylene cages and kept in a temperature-controlled room (21° C.). Food (UAR pellets, Epinay, France) and water are provided ad libitum.
# Electromyographic recordings begin five days after surgery. The electrical activity of abdominal striated muscles is recorded with an electroencephalograph machine (Mini VIII Alvar, Paris, France) using a short time constant (0.03 s) to remove low-frequency signals (<3 Hz) and a paper speed of 3.6 cm/min. Spike bursts are recorded as an index of abdominal contractions.
# Distension procedure: Rats are placed in plastic tunnels (6 cm diameter×25 cm long), where they cannot move, escape, or turn around, in order to prevent damage to the balloon. Animals are accustomed to this procedure for four days before rectal distension in order to minimize stress reactions during experiments. The balloon used for distension is an arterial embolectomy catheter (Fogarty, Edwards Laboratories Inc.). Rectal distension is performed by insertion of the balloon (2 mm diameter×2 cm long) into the rectum, at 1 cm from the anus, and catheter is fixed at the base of the tail. It is inflated progressively with tepid water by steps of 0.4 ml, from 0 to 1.2 ml, each step of inflation lasting 5 min. To detect possible leakage, the volume of water introduced in the balloon is checked by complete removal with a syringe at the end of the distension period.
# Experimental protocol: Rats are injected i.p. with LPS (1 mg/kg (Escherichia coli, serotype O111:B4) Sigma-Aldrich chemical Co., St Louis, Mo.) or its vehicle, and rectal distension with concomitant electromyographic recording of abdominal contractions is performed 9 and 12 h after this administration. To determine the antinociceptive properties of gabapentin and the compound of formula Ia in hyperalgesia conditions, gabapentin (10 and 30 mg/kg) and the compound of formula Ia (0.01, 0.03 and 0.1 mg/kg) or the vehicle (NaCl 0.9% 0.3 ml/rat) are administered per os 1 h before rectal distension but preceded (12 h) by injection of LPS (1 mg/kg i.p.).
# Drugs: All compounds were dissolved in sterile NaCl (0.9% isotonic saline) immediately before use.
# Statistics: Statistical analysis of the number of abdominal contractions occurring during each period of rectal distension is performed by one-way ANOVA followed by parametric Student's unpaired t test.
# [3] = tested on: TNBS-induced chronic visceral allodynia; details: cited from earlier work
compound,measurement,setting,value
1-(aminomethyl)cyclohexane acetic acid [gabapentin],Inhibition at 1 h (%) of the TNBS-induced decrease in the pain threshold,[1]; 100 mg/kg p.o.,14.7 ± 5.1%
same,Inhibition at 1 h (%) of the TNBS-induced decrease in the pain threshold,[1]; 300 mg/kg p.o.,48.6 ± 13.3%
same,Inhibition at 1 h (%) of the TNBS-induced decrease in the pain threshold,[1]; 500 mg/kg p.o.,64.9 ± 10.5%
same,Inhibition at 1 h (%) of the TNBS-induced decrease in the pain threshold,[1]; 1000 mg/kg p.o.,75.2 ± 6.1%
same,"median effective dose (ED50), antiallodynic activity","[1]; p.o., TNBS-treated rats",321 mg/kg
same,inhibition of the number of abdominal contractions induced by rectal distension,"[2]; 10 mg/kg p.o., not significant",24.9%
same,inhibition of the number of abdominal contractions induced by rectal distension,[2]; 30 mg/kg p.o.,85.3%
same,effect on TNBS-induced colonic hypersensitivity,[3]; model of chronic allodynia (Diop et al. 1998),suppress
same,effect on colonic threshold,"[3]; s.c. route, control conditions",not to modify the colonic threshold
"NC[C@]1(CC(=O)O)C[C@H]2CC[C@H]2C1 [compound of formula Ia, (1α,3α,5α)-3-aminomethyl-bicyclo[3.2.0]heptane-3-acetic acid]",Inhibition at 1 h (%) of the TNBS-induced decrease in the pain threshold,[1]; 3 mg/kg p.o.,21.7 ± 3.0%
same,Inhibition at 1 h (%) of the TNBS-induced decrease in the pain threshold,[1]; 10 mg/kg p.o.,34.2 ± 5.7%
same,Inhibition at 1 h (%) of the TNBS-induced decrease in the pain threshold,[1]; 30 mg/kg p.o.,58.8 ± 6.2%
same,Inhibition at 1 h (%) of the TNBS-induced decrease in the pain threshold,[1]; 60 mg/kg p.o.,90.4 ± 9.8%
same,ED50,"[1]; Rattus norvegicus, po, TNBS-treated rats, read-out: median effective dose (ED50), antiallodynic activity",14.4 mg/kg
same,effect on the number of abdominal contractions induced by rectal distension,"[2]; 0.01, 0.03 and 0.1 mg/kg po, distension at 0.4 ml after LPS treatment (FIG. 1)",inhibits in a dose-related manner
same,fold more potent than gabapentin,"[2]; LPS-induced rectal hypersensitivity model, p.o.",about 500 fold
same,ED50,"[2]; Rattus norvegicus, po, distension at 0.4 ml after LPS treatment, read-out: ED50, inhibition of abdominal contractions induced by rectal distension",0.037 mg/kg
CN1CC[C@]23c4c5ccc(O)c4O[C@H]2[C@@H](O)C=C[C@H]3[C@H]1C5 [morphine],effect on colonic threshold,"[3]; s.c., both TNBS-treated animals and controls",increased the colonic threshold
